Results published in patent publication US9968566B2, “Pharmaceutical composition for prophylaxis and/or treatment of corneal and conjunctival diseases or presbyopia containing stilbene compound as active ingredient” (KEIO UNIVERSITY, priority 2014, dated 2018).
Several values for one entry are separate records, joined by “and”; a condition that tells them apart may be missing. Equal values may be shown once.

Columns and labels:
[1] = Measurement of radical scavenging activity (galvinoxyl radical, stopped flow method); type: biochemical; conditions: acetonitrile, deaerated with argon, absorbance at 428 nm
Procedure: Unlike active oxygen, a galvinoxyl radical (GO•), which is a relatively stable organic oxygen radical having a characteristic peak absorption at 428 nm, may be used to perform kinetic analysis in terms of the radical scavenging ability of antioxidants using ultraviolet visible spectroscopy.
In this experiment, the radical scavenging rate was measured by a stopped flow method. The following reagent was used: • Acetonitrile (Nacalai Tesque, Inc., 00433-95); and • Galvinoxyl Radical (Aldrich, G30-7).
A solution of GO• in acetonitrile (about 2.4×10^−6 M) was bubbled with argon for 7 minutes to remove molecular oxygen. […] Subsequently, the acetonitrile solutions of GO• and the compounds were simultaneously mixed to measure changes in the peak absorption of GO• (at 428 nm) over time by a stopped flow method.
Under conditions in which the concentration of each antioxidant is 10 times or more than that of GO• ([Antioxidant agent]>10[GO•]), the reduction in the absorbance at 428 nm derived from GO• follows the pseudo-first-order kinetics (equation (1)) with respect to the concentration of each antioxidant agent (antioxidant): −d[GO•]/dt=kobs[GO•] […] Integration of both sides of equation (1) leads to equation (2): ln([GO•]/[GO•]0)=−kobst (2), wherein [GO•]o is a concentration of GO• when t=0. […]

crystalline lens = experiment: Smoking rat presbyopia model (Example 3): crystalline lens hardness; type: in vivo, Sprague-Dawley rats; conditions: smoking rats, 300 μM PBS solution, 5 μL instilled 4 times per day for 11 days; smoking group 1.04±0.05, non-smoking 0.75±0.04
Procedure: Six-week-old male Sprague-Dawley rats were subjected to smoking treatment to develop dry-eye, presbyopia models. Specifically, a treatment in which mainstream smoke (300 mL) was added to a rat-containing chamber 6 times at 30-minute intervals was performed for 12 days to induce keratoconjunctival epithelial damage. […] Each group consisted of 4 animals (8 eyes). After the 11-day smoking treatment, the body weight, tear volume, fluorescent staining score, and crystalline lens hardness were measured. • 0: not stained (no punctate fluorescence) • 1: weak punctate fluorescence • 2: relatively intense punctate fluorescence • 3: strong punctate fluorescence The crystalline lens hardness was measured by combining an electronic weighing scale and height gauge. A crystalline lens whose minor axis length had been previously measured was placed on an electronic weighing scale, and the weight was set to 0. The handle of a height gauge was used above the crystalline lens to allow the end portion to be in contact with the crystalline lens. Further using the handle, the end portion was lowered about 5 to 10% of the minor axis length to apply a pressure on the crystalline lens. The change in the weight at this time was measured with the electronic weighing scale, and the weight was divided by the moving distance measured with the height gauge. The resulting value was considered to be hardness. A larger value represents more hardness. For statistical analysis of the body weight, tear volume, and crystalline lens hardness, a significant difference test was performed using the Dunnett method in terms of each group with respect to the smoking group.

[2] = Electron spin resonance (ESR) measurement test, amount of tyrosine radical; type: biochemical; conditions: 5 μM, 50 μM and 500 μM added to standard solution; activity order R<DR<DHR
Procedure: (§1) Resveratrol (R), as well as dimethyl resveratrol (DR) and dimethylhydroxy resveratrol (DHR), which are compounds of the present invention, were added to radicals serving as standard substances, and the amounts of remaining tyrosine radicals and hydroxyl radicals were assessed. Specifically, a standard solution comprising a 50 mM NaPi buffer (pH 7.4), 10 mM DMPO, 1.6 mM myoglobin, and 1 mM H2O2 was prepared using myoglobin as a tyrosine radical. Further, a standard solution comprising a 50 mM NaPi buffer (pH 7.4), 10 mM DMPO, 0.1 mM Fe^2+-EDTA, and 1 mM H2O2 was prepared using Fe^2+-EDTA as a hydroxyl radical. […] The ESR was set as follows: microwave power: 10 mW; adjusted frequency: 100 KHz; adjusted magnetic field: 0.1 G; receiver gain: 1000; and time constant: 0.3 s. FIGS. 1(A) and 1(B) show the results.

[3] = Electron spin resonance (ESR) measurement test, amount of hydroxyl radical; type: biochemical; conditions: 5 μM, 50 μM and 500 μM added to standard solution; activity order R<DR<DHR
Procedure: as §1

[4] = test system: keratoconjunctival epithelial damage caused by dry eye; experiment: Therapeutic efficacy test using smoking rat (Example 3): tear volume and fluorescein staining score; type: in vivo, Sprague-Dawley rats; conditions: smoking rats, 300 μM PBS solution, 5 μL instilled 4 times per day for 11 days; for average fluorescein score (fluorescent staining score): smoking group 3.7±1.0, non-smoking 0.8±1.0; for tear volume (cotton thread test, length of wet portion): smoking group 10.0±5.0, non-smoking 14.0±9.1
Procedure: In this experiment, both eyes of each animal were used. The same drug solution was administered to both eyes of each animal, and a comparison was made among groups.
Six-week-old male Sprague-Dawley rats were subjected to smoking treatment to develop dry-eye, presbyopia models.
Specifically, a treatment in which mainstream smoke (300 mL) was added to a rat-containing chamber 6 times at 30-minute intervals was performed for 12 days to induce keratoconjunctival epithelial damage. […] Each group consisted of 4 animals (8 eyes).
After the 11-day smoking treatment, the body weight, tear volume, fluorescent staining score, and crystalline lens hardness were measured.
To determine the tear volume, tears accumulated in the cornea of rat were measured in accordance with the cotton thread test. Specifically, after the rats were anesthetized with ocular instillation of oxybuprocaine hydrochloride, a cotton thread was inserted between the palpebra and eyeball for 60 seconds, and tears were collected. The tear volume was assessed by measuring the length (mm) of the wet portion in the cotton thread.
After the completion of ocular instillation, a damaged portion in corneal epithelium was stained with a fluorescent dye (fluorescein). Then, the degree of corneal epithelial damage was assessed based on the following criteria by scoring each section of the entire cornea, which was divided into a total of 9 sections, i.e., upper, middle, and lower, and left, center, and right sections, and calculating the total value. Thereafter, the score values were compared among the groups for analysis. For statistical analysis, a significant difference test was performed by using the Dunnett method in terms of each group with respect to the smoking group. For unbiased evaluation, the content of the drug solution administered to each group was blinded from the initiation of ocular instillation to the scoring of the corneal epithelial damage, and collated after scoring.
Evaluation Criteria for Scoring of Fluorescein Staining of Corneal Epithelium
• 0: not stained (no punctate fluorescence) • 1: weak punctate fluorescence • 2: relatively intense punctate fluorescence • 3: strong punctate fluorescence The crystalline lens hardness was measured by combining an electronic weighing scale and height gauge. A crystalline lens whose minor axis length had been previously measured was placed on an electronic weighing scale, and the weight was set to 0. The handle of a height gauge was used above the crystalline lens to allow the end portion to be in contact with the crystalline lens. Further using the handle, the end portion was lowered about 5 to 10% of the minor axis length to apply a pressure on the crystalline lens. The change in the weight at this time was measured with the electronic weighing scale, and the weight was divided by the moving distance measured with the height gauge. The resulting value was considered to be hardness. A larger value represents more hardness.
For statistical analysis of the body weight, tear volume, and crystalline lens hardness, a significant difference test was performed using the Dunnett method in terms of each group with respect to the smoking group.

corneal epithelium = experiment: Safety test: hematoxylin-eosin staining of rat cornea; type: in vivo; conditions: 300 μM PBS solution, treated for one week
Source text: FIGS. 8(A) and 8(B) show photographs of each tissue section.

[5] = test system: keratoconjunctival epithelial damage caused by dry eye; experiment: Therapeutic efficacy test using smoking rat (Example 5), comparison with Diquas; type: in vivo, Sprague-Dawley rats; conditions: for body weight: smoking rats after 11-day treatment, instilled 5 μL 4 times per day, smoking group 280.0±5.8; for average fluorescein score (fluorescent staining score) / tear volume (cotton thread test): smoking rats, DR 300 μM in PBS or Diquas 3%, 5 μL 4 times per day for 11 days; for average fluorescein score (fluorescent staining score): smoking group 4.6±1.2, non-smoking 1.2±1.2; for tear volume (cotton thread test): smoking group 11.3±9.0, non-smoking 17.6±9.1
Procedure: In this experiment, both eyes of each animal were used. The same drug solution was administered to both eyes of each animal, and a comparison was made among groups. Six-week-old male Sprague-Dawley rats were subjected to smoking treatment to develop dry-eye models. Specifically, a treatment in which mainstream smoke (300 mL) was added to a rat-containing chamber 6 times at 30-minute intervals was performed for 12 days to induce a keratoconjunctival epithelial damage. […] The tear volume and fluorescent staining score were measured in accordance with the method described in Example 3. For statistical analysis, a significant difference test was performed using the Dunnett method in terms of each group with respect to the smoking group.

[6] = Stability test at 25° C. and 60% RH, amount by HPLC; type: physicochemical; conditions: for amount of compound remaining, single runs: first/second/third time
Procedure: After a constant period of time, the amount of each compound was measured by HPLC to evaluate the stability. The amount of the compound was calculated in accordance with: (The amount of compound after a constant period of time)/(the amount of compound at the time when the test was initiated)×100(%).

Q: Which “radical scavenging activity (constant kHT of rate of hydrogen transfer to GO•)” value [1] does the source give for `C/C(=C(/C)c1ccc(O)c(O)c1)c1cc(O)cc(O)c1` [DHR, (E)-4-[3-(3,5-dihydroxyphenyl)but-2-en-2-yl]benzene-1,2-diol] here?
A: 2300 M⁻¹ s⁻¹

Q: And the “crystalline lens elasticity (hardness; larger value = harder)” value (crystalline lens)?
A: 0.75±0.05

Q: And the “radical generation (amount of tyrosine radical, ESR)” value [2]?
A: reduced radical generation in a concentration-dependent manner

Q: And the “radical generation (amount of hydroxyl radical, ESR)” value [3]?
A: reduced radical generation in a concentration-dependent manner

Q: And the “average fluorescein score (fluorescent staining score)” value [4]?
A: 1.5±0.5

Q: And the “tear volume (cotton thread test, length of wet portion)” value [4]?
A: 13.8±11.1 mm

Q: Which results are given for `C/C(=C(/C)c1cc(O)cc(O)c1)c1ccc(O)cc1` [DR, (E)-5-[3-(4-hydroxyphenyl)but-2-en-2-yl]benzene-1,3-diol]?
A: radical scavenging activity (constant kHT of rate of hydrogen transfer to GO•) [1]: 0.96 M⁻¹ s⁻¹; crystalline lens elasticity (hardness; larger value = harder) (crystalline lens): 0.86±0.06; radical generation (amount of tyrosine radical, ESR) [2]: reduced radical generation in a concentration-dependent manner; morphological effects on the corneal epithelium (HE staining) (corneal epithelium): did not show morphological effects on the corneal epithelium; radical generation (amount of hydroxyl radical, ESR) [3]: reduced radical generation in a concentration-dependent manner; body weight [5]: 271.0 ± 7.5 g; average fluorescein score (fluorescent staining score) [5]: 2.1±0.8; tear volume (cotton thread test) [5]: 19.3±11.2 mm; average fluorescein score (fluorescent staining score) [4]: 2.3±0.5; tear volume (cotton thread test, length of wet portion) [4]: 8.3±4.9 mm; amount of compound remaining, average ([6]; 168 h): 99%; amount of compound remaining, average ([6]; 336 h): 98%; amount of compound remaining, average ([6]; 504 h): 96%; amount of compound remaining, average ([6]; 672 h): 94%; amount of compound remaining, average ([6]; buffer, 24 h, 10 mM): 99%; amount of compound remaining, average ([6]; buffer, 48 h, 10 mM): 96%; amount of compound remaining, average ([6]; buffer, 72 h, 10 mM): 94%; amount of compound remaining, average ([6]; buffer, 168 h, 10 mM): 88%; amount of compound remaining, average ([6]; buffer, 336 h, 10 mM): 76%

Q: With `Oc1ccc(/C=C/c2cc(O)cc(O)c2)cc1` [Resveratrol, trans-1,2-(3,4′,5-trihydroxydiphenyl)ethylene, reference compound] as the compound, how does the “crystalline lens elasticity (hardness; larger value = harder)” value (crystalline lens) read?
A: 0.87±0.06

Q: And the “radical generation (amount of tyrosine radical, ESR)” value [2]?
A: reduced radical generation in a concentration-dependent manner

Q: What about the “radical generation (amount of hydroxyl radical, ESR)” value [3] of the same compound?
A: reduced radical generation in a concentration-dependent manner

Q: And the “tear volume (cotton thread test, length of wet portion)” value [4]?
A: 6.9±4.3 mm

Q: What about the “amount of compound remaining, average” value ([6]; 10 mM solution (10% DMSO in water), 1 week, 25° C. 60% RH, average of three runs) of the same compound?
A: 82%

Q: What about the “amount of compound remaining, single runs” value ([6]; 10 mM solution (10% DMSO in water), 1 week, 25° C. 60% RH) of the same compound?
A: 80% and 82% and 85%

Q: What about the “amount of compound remaining, average” value ([6]; 10 mM solution (10% DMSO in water), 2 weeks, 25° C. 60% RH, average of three runs) of the same compound?
A: 64%

Q: And the “amount of compound remaining, single runs” value ([6]; 10 mM solution (10% DMSO in water), 2 weeks, 25° C. 60% RH)?
A: 59% and 65% and 68%

Q: What about the “amount of compound remaining, average” value ([6]; 10 mM solution (10% DMSO in water), 1 day, 25° C. 60% RH, average of three runs) of the same compound?
A: 98%

Q: And the “amount of compound remaining, single runs” value ([6]; 10 mM solution (10% DMSO in water), 1 day, 25° C. 60% RH)?
A: 98% and 99% and 96%

Q: And the “amount of compound remaining, average” value ([6]; 10 mM solution (10% DMSO in water), 2 days, 25° C. 60% RH, average of three runs)?
A: 95%

Q: What about the “amount of compound remaining, single runs” value ([6]; 10 mM solution (10% DMSO in water), 2 days, 25° C. 60% RH) of the same compound?
A: 95% and 96%

Q: What about the “amount of compound remaining, average” value ([6]; 10 mM solution (10% DMSO in water), 3 days, 25° C. 60% RH, average of three runs) of the same compound?
A: 91%

Q: And the “amount of compound remaining, single runs” value ([6]; 10 mM solution (10% DMSO in water), 3 days, 25° C. 60% RH)?
A: 90% and 93%

Q: And the “amount of compound remaining, average” value ([6]; solid, 1 week, 25° C. 60% RH, average of three runs)?
A: 99%

Q: What about the “amount of compound remaining, single runs” value ([6]; solid, 1 week, 25° C. 60% RH) of the same compound?
A: 100% and 101% and 97%

Q: And the “amount of compound remaining, average” value ([6]; solid, 2 weeks, 25° C. 60% RH, average of three runs)?
A: 95%

Q: What about the “amount of compound remaining, single runs” value ([6]; solid, 2 weeks, 25° C. 60% RH) of the same compound?
A: 96% and 94%

Q: What about the “amount of compound remaining, average” value ([6]; solid, 3 weeks, 25° C. 60% RH, average of three runs) of the same compound?
A: 91%

Q: What about the “amount of compound remaining, single runs” value ([6]; solid, 3 weeks, 25° C. 60% RH) of the same compound?
A: 91% and 90% and 92%

Q: And the “amount of compound remaining, average” value ([6]; solid, 4 weeks, 25° C. 60% RH, average of three runs)?
A: 86%

Q: And the “amount of compound remaining, single runs” value ([6]; solid, 4 weeks, 25° C. 60% RH)?
A: 88% and 86% and 85%

Q: Which body weight [5] does the source give for `O=c1ccn([C@@H]2O[C@H](COP(=O)(O)OP(=O)(O)OP(=O)(O)OP(=O)(O)OC[C@H]3O[C@@H](n4ccc(=O)[nH]c4=O)[C@H](O)[C@@H]3O)[C@@H](O)[C@H]2O)c(=O)[nH]1` [diquafosol sodium, reference compound] here?
A: 273.8 ± 4.3 g

Q: And the “average fluorescein score (fluorescent staining score)” value [5]?
A: 4.3±1.6

Q: And the “tear volume (cotton thread test)” value [5]?
A: 11.0±6.5 mm
